Measurements: ChEMBL document CHEMBL5131572, “Identification of a Potent, Selective, and Brain-Penetrant Rho Kinase Inhibitor and its Activity in a Mouse Model of Huntington's Disease” (J Med Chem, 2022)
Converted amounts (≈) assume the structure as drawn.

Experiments:
[1] = Distribution coefficient, logD of compound by chromatographic method; assay type: physicochemical; conditions: octanol/water
[2] = Metabolic stability in mouse liver microsomes assessed as intrinsic clearance at 1 uM measured upto 40 mins in presence of NADPH by LC-MS/MS analysis; assay type: ADME, Microsome; conditions: read-out: CLH
[3] = Unbound AUC in C57BL/6 mouse brain at 10 mg/kg, po by LC-MS/MS analysis; assay type: ADME, organism-based; conditions: in vivo
[4] = Lipophilicity, logP of compound; assay type: physicochemical; conditions: octanol/water
[5] = Clearance in C57BL/6 mouse plasma at 2 mg/kg, iv; assay type: ADME, organism-based
[6] = Kinetic solubility of the compound in pH 7.4 PBS buffer incubated for 2 hrs using orbital shaker by LC-UV mass spectrometry; assay type: physicochemical; conditions: read-out: Kinetic_solubility
[7] = Oral bioavailability in C57BL/6 mouse at 10 mg/kg; assay type: ADME, organism-based; conditions: in vivo
[8] = Inhibition of ROCK in rat A7R5 cells assessed as cofilin serine 3 phosphorylation incubated for 1 hr by ICW assay; conditions: A7R5, 1 h
[9] = biological target: T1, cGMP-dependent protein kinase 1 (Homo sapiens, UniProt Q13976); experiment: Inhibition of full length recombinant N-terminal GST-tagged human PKG expressed in baculovirus infected Sf9 insect cells using RSK as substrate preincubated for 15 mins followed by substrate addition and measured after 30 mins in presence of ATP by ADP Glo kinase assay
T1 sequence (Q13976 whole entry): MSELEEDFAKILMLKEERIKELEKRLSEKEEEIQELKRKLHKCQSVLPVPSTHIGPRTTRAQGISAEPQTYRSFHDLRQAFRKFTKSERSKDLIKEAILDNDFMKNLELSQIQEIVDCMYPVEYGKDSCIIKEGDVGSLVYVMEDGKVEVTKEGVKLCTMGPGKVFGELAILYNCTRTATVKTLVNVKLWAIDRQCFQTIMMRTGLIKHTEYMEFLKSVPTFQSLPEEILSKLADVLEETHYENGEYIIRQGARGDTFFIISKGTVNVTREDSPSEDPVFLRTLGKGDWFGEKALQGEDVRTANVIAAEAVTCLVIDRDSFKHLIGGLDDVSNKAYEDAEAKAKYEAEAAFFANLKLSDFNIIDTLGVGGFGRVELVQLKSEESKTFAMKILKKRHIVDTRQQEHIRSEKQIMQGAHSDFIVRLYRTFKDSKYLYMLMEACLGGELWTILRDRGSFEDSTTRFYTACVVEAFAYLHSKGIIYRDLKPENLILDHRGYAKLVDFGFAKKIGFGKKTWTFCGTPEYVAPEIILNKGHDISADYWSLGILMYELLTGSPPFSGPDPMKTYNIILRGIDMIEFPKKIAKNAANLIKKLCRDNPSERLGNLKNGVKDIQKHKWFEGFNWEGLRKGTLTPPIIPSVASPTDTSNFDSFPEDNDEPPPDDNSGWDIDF

[10] = Unbound AUC in C57BL/6 mouse plasma at 10 mg/kg, po by LC-MS/MS analysis; assay type: ADME, organism-based; conditions: in vivo
[11] = Apparent permeability in MDCK-MDR1 cells at 10 uM after 1 hr by LC-MS/MS analysis; assay type: ADME, cell-based, Canis lupus familiaris; conditions: dog
Cytochrome P450 1A2 = biological target: T2, Cytochrome P450 1A2 (Homo sapiens, UniProt P05177); experiment: Time dependent inhibition of CYP1A2 in pooled human liver microsomes using […] as substrate preincubated for 30 mins in presence of NADPH followed by substrate addition and measured after 10 mins by LC-MS/MS analysis; assay type: ADME, Microsome
T2 sequence (P05177 whole entry): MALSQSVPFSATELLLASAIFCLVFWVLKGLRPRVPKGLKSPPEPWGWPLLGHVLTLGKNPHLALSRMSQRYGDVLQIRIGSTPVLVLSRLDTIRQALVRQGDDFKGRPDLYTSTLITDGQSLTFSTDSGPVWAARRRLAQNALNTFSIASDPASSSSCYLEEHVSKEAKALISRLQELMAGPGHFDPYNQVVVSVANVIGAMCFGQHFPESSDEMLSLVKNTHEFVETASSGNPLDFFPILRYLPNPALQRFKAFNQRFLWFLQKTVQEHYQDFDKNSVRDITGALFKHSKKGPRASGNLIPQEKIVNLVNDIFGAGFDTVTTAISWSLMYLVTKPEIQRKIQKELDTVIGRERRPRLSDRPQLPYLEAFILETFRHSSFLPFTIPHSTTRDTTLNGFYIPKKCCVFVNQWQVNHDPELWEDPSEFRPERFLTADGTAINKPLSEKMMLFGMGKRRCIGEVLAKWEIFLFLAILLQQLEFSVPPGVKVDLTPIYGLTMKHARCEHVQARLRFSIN

[12] = Inhibition of ROCK in rat A7R5 cells assessed as increase in AKT phosphorylation measured after 30 mins by alphaLISA Surefire multiplex assay; assay type: cell-based; conditions: A7R5, 0.5 h
[13] = biological target: RAC-alpha serine/threonine-protein kinase (Homo sapiens, UniProt P31749); experiment: Inhibition of AKT (unknown origin)
[14] = biological target: Rho-associated protein kinase 2 (Homo sapiens, UniProt O75116); experiment: Inhibition of recombinant N-terminal GST-tagged human ROCK2 (5 to 554 residues) expressed in baculovirus infected Sf9 cells using S6K as substrate incubated for 30 mins in presence of ATP by ADP Glo kinase assay
[15] = Inhibition of ROCK in human PANC-1 cells assessed as decrease in MYPT1 phosphorylation at T850 residues measured after 1 hr by Western blot analysis; assay type: cell-based; conditions: PANC-1, 1 h
[16] = Hepatic extraction ratio in C57BL/6 mouse at 2 mg/kg, iv; assay type: ADME, organism-based; conditions: in vivo, read-out: ERH
[17] = Ratio of unbound AUC in C57BL/6 mouse brain at 10 mg/kg, po to IC50 for Inhibition of ROCK in rat A7r5 cells; assay type: organism-based; conditions: in vivo
MDR1 = experiment: in vitro; conditions: dog, MDCK-MDR1
Description: Efflux ratio of apparent permeability across basolateral to apical side to apical to basolateral side in MDCK-MDR1 cells at 10 uM measured after 1 hr by LC-MS/MS analysis

LIM domain kinase 2 = LIM domain kinase 2 (Homo sapiens, UniProt P53671); experiment: Inhibition of wild-type human full length LIMK2 (M1 to P638 residues) expressed in bacterial expression system by Kinomescan method
Mus musculus [18] = experiment: Antihypertensive activity in CD1 mouse assessed as decrease in systolic blood pressure at 10 to 20 mg/kg, po measured after 0.5 to 2 hrs; assay type: functional; conditions: dose 10-20 mg/kg, time 0.5-2 hrs
Mus musculus [19] = experiment: Antihypertensive activity in CD1 mouse assessed as decrease in diastolic blood pressure at 10 to 20 mg/kg, po measured after 0.5 to 2 hrs; assay type: functional; conditions: dose 10-20 mg/kg, time 0.5-2 hrs
Mus musculus [20] = experiment: In vivo inhibition of ROCK in po dosed HTT zQ175DN Knock-in mouse assessed as reduction in MYPT1 phosphorylation in striatum after 1 hr by MSD assay; assay type: functional, organism-based; conditions: dose 1-20 mg/kg, DDE = dose-dependent effect
Mus musculus [21] = experiment: Antihypertensive activity in CD1 mouse assessed as decrease in mean arterial pressure at 10 to 20 mg/kg, po measured after 0.5 to 2 hrs; assay type: functional; conditions: dose 10-20 mg/kg, time 0.5-2 hrs
Mus musculus [22] = experiment: Antihypertensive activity in CD1 mouse assessed as decrease in body temperature at 10 to 20 mg/kg, po measured after 0.5 to 4 hrs; assay type: functional; conditions: dose 10-20 mg/kg, time 0.5-4 hrs
Mus musculus [23] = experiment: Antihypertensive activity in CD1 mouse assessed as decrease in heart rate pressure at 10 to 20 mg/kg, po measured after 0.5 to 2 hrs; conditions: dose 10-20 mg/kg, time 0.5-2 hrs
Mus musculus [24] = experiment: In vivo inhibition of ROCK in HTT zQ175DN Knock-in mouse assessed as reduction in MYPT1 phosphorylation in striatum at 10 mg/kg, po by MSD assay; assay type: functional, organism-based; conditions: time 1-8 hrs, TDE = time-dependent effect

Sequence of Rho-associated protein kinase 2 (O75116 whole entry, the tested form may be a part): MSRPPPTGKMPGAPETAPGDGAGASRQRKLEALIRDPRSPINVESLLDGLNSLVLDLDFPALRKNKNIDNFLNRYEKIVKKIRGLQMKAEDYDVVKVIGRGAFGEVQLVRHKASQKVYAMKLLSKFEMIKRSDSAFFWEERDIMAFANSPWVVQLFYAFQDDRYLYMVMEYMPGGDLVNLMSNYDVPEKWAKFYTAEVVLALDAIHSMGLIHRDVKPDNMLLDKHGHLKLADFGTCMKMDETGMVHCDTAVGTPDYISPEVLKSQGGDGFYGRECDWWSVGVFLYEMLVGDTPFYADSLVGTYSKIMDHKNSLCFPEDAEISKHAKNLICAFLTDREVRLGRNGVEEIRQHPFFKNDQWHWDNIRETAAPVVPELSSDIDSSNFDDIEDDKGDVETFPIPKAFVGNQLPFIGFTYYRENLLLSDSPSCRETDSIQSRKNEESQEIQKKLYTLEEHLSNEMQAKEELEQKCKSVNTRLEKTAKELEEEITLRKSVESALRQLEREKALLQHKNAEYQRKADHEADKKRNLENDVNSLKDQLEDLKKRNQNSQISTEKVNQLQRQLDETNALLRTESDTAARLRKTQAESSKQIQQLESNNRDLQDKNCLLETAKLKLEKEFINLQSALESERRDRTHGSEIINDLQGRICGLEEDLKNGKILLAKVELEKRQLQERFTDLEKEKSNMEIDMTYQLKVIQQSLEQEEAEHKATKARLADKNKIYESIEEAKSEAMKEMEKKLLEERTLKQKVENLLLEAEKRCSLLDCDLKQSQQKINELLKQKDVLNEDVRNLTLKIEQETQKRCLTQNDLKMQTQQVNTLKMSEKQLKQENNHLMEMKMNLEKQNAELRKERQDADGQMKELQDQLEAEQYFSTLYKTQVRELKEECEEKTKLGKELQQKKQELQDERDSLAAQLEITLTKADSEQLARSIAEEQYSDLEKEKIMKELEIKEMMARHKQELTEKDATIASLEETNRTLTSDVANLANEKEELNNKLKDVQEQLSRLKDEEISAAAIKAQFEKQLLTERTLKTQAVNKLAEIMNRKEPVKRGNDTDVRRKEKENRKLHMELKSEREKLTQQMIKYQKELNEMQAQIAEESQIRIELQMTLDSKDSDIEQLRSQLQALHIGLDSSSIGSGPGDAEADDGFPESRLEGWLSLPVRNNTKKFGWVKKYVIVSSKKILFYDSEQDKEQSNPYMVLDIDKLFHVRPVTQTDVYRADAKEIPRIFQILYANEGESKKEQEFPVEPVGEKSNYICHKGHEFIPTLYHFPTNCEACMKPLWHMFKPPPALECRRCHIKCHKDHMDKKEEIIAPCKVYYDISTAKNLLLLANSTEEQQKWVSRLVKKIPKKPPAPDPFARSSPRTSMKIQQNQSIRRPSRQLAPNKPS
Sequence of RAC-alpha serine/threonine-protein kinase (P31749 whole entry, the tested form may be a part): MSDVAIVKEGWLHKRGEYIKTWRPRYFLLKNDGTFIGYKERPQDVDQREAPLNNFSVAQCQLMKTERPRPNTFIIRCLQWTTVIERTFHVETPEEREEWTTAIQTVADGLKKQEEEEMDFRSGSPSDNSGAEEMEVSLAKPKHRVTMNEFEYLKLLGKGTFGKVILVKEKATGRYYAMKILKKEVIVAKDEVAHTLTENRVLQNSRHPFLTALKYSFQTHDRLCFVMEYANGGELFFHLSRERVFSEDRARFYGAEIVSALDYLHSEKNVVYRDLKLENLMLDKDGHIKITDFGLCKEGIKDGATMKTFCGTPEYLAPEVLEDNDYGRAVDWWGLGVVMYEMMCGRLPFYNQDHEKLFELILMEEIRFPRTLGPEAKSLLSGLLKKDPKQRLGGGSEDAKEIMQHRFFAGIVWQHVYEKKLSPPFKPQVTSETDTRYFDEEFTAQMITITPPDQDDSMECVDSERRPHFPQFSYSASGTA
Sequence of LIM domain kinase 2 (P53671 whole entry, the tested form may be a part): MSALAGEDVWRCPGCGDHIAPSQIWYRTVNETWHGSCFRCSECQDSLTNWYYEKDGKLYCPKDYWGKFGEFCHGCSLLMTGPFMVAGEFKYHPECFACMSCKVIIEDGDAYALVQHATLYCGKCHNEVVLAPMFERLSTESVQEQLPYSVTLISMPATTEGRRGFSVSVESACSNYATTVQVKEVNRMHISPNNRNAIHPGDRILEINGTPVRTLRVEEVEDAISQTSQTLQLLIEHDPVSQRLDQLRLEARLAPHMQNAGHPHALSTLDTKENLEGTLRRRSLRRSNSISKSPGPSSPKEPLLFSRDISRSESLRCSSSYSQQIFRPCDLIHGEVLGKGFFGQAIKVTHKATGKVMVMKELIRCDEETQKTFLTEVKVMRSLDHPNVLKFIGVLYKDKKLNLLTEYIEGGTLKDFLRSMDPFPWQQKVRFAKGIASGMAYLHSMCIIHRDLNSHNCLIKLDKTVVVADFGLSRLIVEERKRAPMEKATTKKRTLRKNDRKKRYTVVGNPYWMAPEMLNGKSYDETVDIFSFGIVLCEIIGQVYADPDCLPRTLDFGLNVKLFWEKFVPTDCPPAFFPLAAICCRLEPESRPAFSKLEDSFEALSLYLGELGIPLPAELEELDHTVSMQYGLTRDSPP

| SMILES | chromatographic logD [1] | CLint scaled at 1 µM [2] [mL/min/kg] | logP [4] | solubility kinetic at 2 h [6] [µM] | IC50 [8] [nM] | IC50 [9] [nM] | Papp at 1 h, 10 µM [11] [×10⁻⁶ cm/s] | IC50 [14] [nM] | efflux ratio at 1 h, 10 µM (MDR1) | also measured |
| --- | --- | --- | --- | --- | --- | --- | --- | --- | --- | --- |
| COc1cc(F)cc([C@@H](C)NC(=O)N2CCN(c3ccncc3F)C[C@H]2C)c1 | 2.4 | < 65 | 2.7 | 140 (≈ 54.7 µg/mL) | 15 | 1700 | 98.4 |  |  | fAUC [3]: 40 nM·kg·h/mg; clearance [5]: 85 mL/min/kg; bioavailability [7]: 78%; fAUC [10]: 30 nM·kg·h/mg; IC50 (Cytochrome P450 1A2): 1100 nM |
| COc1cccc([C@@H](C)NC(=O)N2CCN(c3ccncc3F)C[C@H]2C)c1F | 2.3 | 79 | 2.6 | 150 (≈ 58.6 µg/mL) | 323 | 50900 | 79.7 |  | 1.3 |  |
| COc1cccc([C@@H](C)NC(=O)c2ccc(-c3ccnc(F)c3)cc2)c1 |  |  |  |  | 77 | 17 |  |  |  | IC50 [13]: 2.37 µM |
| C[C@@H]1CN(c2ccncc2F)CCN1C(=O)N[C@H](C)c1cccn2nccc12 | 1.6 | 169 | 2.1 | > 200 | 14 | 6650 | 104 | 2 | 3.7 |  |

Continued by falling IC50 [8], values first:

| chromatographic logD [1] | CLint scaled at 1 µM [2] [mL/min/kg] | logP [4] | solubility kinetic at 2 h [6] [µM] | IC50 [8] [nM] | IC50 [9] [nM] | Papp at 1 h, 10 µM [11] [×10⁻⁶ cm/s] | IC50 [14] [nM] | efflux ratio at 1 h, 10 µM (MDR1) | SMILES | also measured |
| --- | --- | --- | --- | --- | --- | --- | --- | --- | --- | --- |
|  |  |  |  | 290 | 320 |  | 26 |  | COc1cccc([C@@H](C)NC(=O)c2ccc(-c3ccnc(F)c3)nc2)c1 | EC50 [12]: 3210 nM; IC50 [13]: 9.26 µM; IC50 [15]: 1870 nM |
|  | 103 |  | 170 (≈ 63.3 µg/mL) | 122 | 18900 | 58.1 | 6 | 2.8 | COc1cccc([C@@H](C)NC(=O)N2CCN(c3ccnc(F)c3)C[C@H]2C)c1 | hepatic extraction ratio [16]: 0.31; Ratio [17]: 0.2; fAUC [3]: 30 nM·kg·h/mg; clearance [5]: 28.3 mL/min/kg; bioavailability [7]: 36%; fAUC [10]: 100 nM·kg·h/mg; IC50 (Cytochrome P450 1A2): > 10000 nM |
|  |  |  |  | 8 | 2250 |  | 3 |  | COc1cccc([C@@H](C)NC(=O)N2CCN(c3ccncc3F)C[C@H]2C)c1 | IC50 (LIM domain kinase 2): 25 nM; Activity (Mus musculus [18]): 59.5 mmHg; EC50 [12]: 28 nM; Activity (Mus musculus [19]): 56.4 mmHg; inhibition (Mus musculus [20]): Dde; Activity (Mus musculus [21]): 61 mmHg; T (Mus musculus [22]): 2.5 °C; Activity (Mus musculus [23]): 107 bpm; inhibition (Mus musculus [24]): Tde; IC50 [15]: 14 nM |
